Experimental data published in patent EP1642577A1, “Derivatives of aryl (or heteroaryl) azolylcarbinols for the treatment of central neuropathic pain” (Laboratorios Dr. Esteve S.A., priority 2004, dated 2006).

Tested on: Rats operated on lnfraorbital nerve
Test: Rats operated on infraorbital nerve (ligature): response/nociceptive threshold measured as aversive reactions
Type: in vivo
Text: Figures 1 and 2: Refering to example 7 they show the high efficacy of Cizolirtine in a model for the central neuropathic pain, the ligature of the infraorbital nerve.
Rats operated on lnfraorbital nerve
Rats were operated placing a ligature around the infraorbital nerve on one side. Following this operation the response threshold in (g) is reduced considerably if comparing the ipsilateral and contralateral side to the response pre ligature (Fig. 2) measured as aversive reactions. […] Saline produced no modification of the nociceptive threshold.

Q: Which “nociceptive threshold (%)” value (i.p., 80 mg/kg, ipsilateral side, rats with ligature around the infraorbital nerve, Fig. 1) does the source give for CN(C)CCOC(c1ccccc1)c1ccnn1C (racemic) [Cizolirtine, (±)-5-{α-[2-(dimethylamino)ethoxy]benzyl}-1-methyl-1H-pirazole] here?
A: strong inducement of the nociceptive threshold

Q: What about the “efficacy in a model for the central neuropathic pain, the ligature of the infraorbital nerve” value (legend of Figures 1 and 2, referring to example 7) of the same molecule?
A: high efficacy
